In the first assay the test system is Jurkat cells. As to the kind of experiment: Cytotoxicity of compounds, CellTiter-Glo. It counts as cell-based, Human. Particulars: Homo sapiens, Jurkat, Table 3; Cytotoxicity of Compounds on Jurkat Cells; read-out: EC50. The text has this:
Cell lines used: Human T-cell leukemia cell line Jurkat (ATCC: TIB-152); HCC1954 (ATCC: CRL. 2338); Human Pancreatic cells lines: AsPC-1 (ATCC: CRL-1682), BxPC-3 (ATCC: CRL.1687), HPAF-II (ATCC: CRL.1997), MiaPaCa2 (ATCC: CRL.1420), PANC-1 (ATCC: CRL.1469), Capan-1 (ATCC: HTB-79), Capan-2 (ATCC: HTB-80) and the Human gastric carcinoma cell line NCI-N87 (ATCC: CRL. 5822); AML-193 (ATCC: CRL.9589), CCRF-CEM (ATCC: CCL-119), DU145 (ATCC: HTB-81), PC-3 (ATCC: CRL.1435), A-431 (ATCC: CRL.1555), HT-29 (ATCC: HTB-38), A-172 (ATCC: CRL.1620), NCI-H358 (ATCC: CRL.5807), A549 (ATCC: CCL-185), Colo-205 (ATCC: CCL-222), MDA-MB-231 (ATCC: HTB-26), OVCAR-3 (ATCC: HTB-161), OV-90 (ATCC: CRL.11732), OE19 (Sigma: 96071721), RT 112/84 (Sigma: 85061106).
On the day prior to adding compounds, HCC1954 AsPC-1, BxPC-3, HPAF-II, MiaPaCa2, PANC-1, Capan-1, Capan-2 and NCI-N87 cells were added to opaque-walled 96-well tissue culture-treated microtiter plates using complete growth medium at a density of 2500 cells/100 microlitre (uL) of medium. These adherant cell lines cells were incubated for one night at 37° C./5% CO2 to allow the cells to attach to the microtiter plate surface. On the day that compounds were added, Jurkat cells are added to separate 96-well microtiter plates at 2500 cells/100 uL using the same growth medium as HCC1954. Compound were first serially diluted using dimethyl sulfoxide, and then the prepared dilutions are added to complete growth medium at five-times the final concentration—compounds were then titrated 1:3, eight steps. A control with no compound (growth medium alone) was included on each microtiter plate in sextuplicate. The prepared compounds titrations were added (twenty-five uL/well) in triplicate. The cells and compound titrations were incubated at 37° C./5% CO2 for three nights. After the incubation, cell viability is measured using CellTiter-Glo® reagent by adding thirty uL of prepared CellTiter-Glo® to each assay well. The assay is incubated for at least twenty minutes in the dark prior to measuring emitted luminescence using a microplate luminometer (500 ms integration time). The collected relative luminescence units (RLU) are converted to % cytotoxicity using the Growth medium alone control mentioned above (% Cytotoxicity=1−[Well RLU/average medium alone control RLU]).
GraphPad Prism was used for generation of EC50 values using three parameter non-linear regression curve fitting.
Regarding `CN[C@H](C(=O)N[C@H](C(=O)N(C)[C@H](/C=C(\C)C(=O)NS(=O)(=O)c1cc(C(=O)OC)ccc1Cl)C(C)C)C(C)(C)C)C(C)(C)c1ccccc1` [Compound 74, methyl 4-chloro-3-(N—((S,E)-2,5-dimethyl-4-((S)—N,3,3-trimethyl-2-((S)-3-methyl-2-(methylamino)-3-phenylbutanamido)butanamido)hex-2-enoyl)sulfamoyl)benzoate], the EC50 (as a rule, the concentration at which the effect is half-maximal) was 0.087 nM. For the compound `CN[C@H](C(=O)N[C@H](C(=O)N(C)[C@H](/C=C(\C)C(=O)NS(=O)(=O)Cc1ccc(CNC(=O)C(F)(F)F)cc1)C(C)C)C(C)(C)C)C(C)(C)c1ccccc1` [Compound 76, (S,E)-2,5-dimethyl-N-(4-((2,2,2-trifluoroacetamido)methyl)benzylsulfonyl)-4-((S)—N,3,3-trimethyl-2-((S)-3-methyl-2-(methylamino)-3-phenylbutanamido)butanamido)hex-2-enamide], the EC50 was 0.328 nM. Turning to `CN[C@H](C(=O)N[C@H](C(=O)N(C)[C@H](/C=C(\C)C(=O)NS(=O)(=O)c1ccc(CNC(=O)C(F)(F)F)cc1)C(C)C)C(C)(C)C)C(C)(C)c1ccccc1` [Compound 84, (S,E)-2,5-dimethyl-N-(4-((2,2,2-trifluoroacetamido)methyl)phenylsulfonyl)-4-((S)—N,3,3-trimethyl-2-((S)-3-methyl-2-(methylamino)-3-phenylbutanamido)butanamido)hex-2-enamide], the EC50 worked out at 1.39 nM. Turning to `CN[C@H](C(=O)N[C@H](C(=O)N(C)[C@H](/C=C(\C)C(=O)NS(=O)(=O)c1ccccc1NC(=O)C(F)(F)F)C(C)C)C(C)(C)C)C(C)(C)c1ccccc1` [Compound 97, (S,E)-2,5-dimethyl-N-(2-(2,2,2-trifluoroacetamido)phenylsulfonyl)-4-((S)—N,3,3-trimethyl-2-((S)-3-methyl-2-(methylamino)-3-phenylbutanamido)butanamido)hex-2-enamide], the EC50 amounted to 1.62 nM.

The assay is the same for the next values; noted with them: Homo sapiens, Jurkat, Table 6; Compound Cytotoxicity on Jurkat; read-out: EC50.
Regarding `CN[C@H](C(=O)N[C@H](C(=O)N(C)[C@H](/C=C(\C)C(=O)NS(=O)(=O)CCc1ccc([N+](=O)[O-])cc1)C(C)C)C(C)(C)C)C(C)(C)c1ccccc1` [Compound 73, (S,E)-2,5-dimethyl-N-(4-nitrophenethylsulfonyl)-4-((S)—N,3,3-trimethyl-2-((S)-3-methyl-2-(methylamino)-3-phenylbutanamido)butanamido)hex-2-enamide], the EC50 stood at 2.68 nM. On to `CN[C@H](C(=O)N[C@H](C(=O)N(C)[C@H](/C=C(\C)C(=O)NS(=O)(=O)Cc1ccccc1)C(C)C)C(C)(C)C)C(C)(C)c1ccc(-c2ccc(OC)cc2)cc1` [Compound 88, (S,E)-N-(benzylsulfonyl)-4-((S)-2-((S)-3-(4′-methoxybiphenyl-4-yl)-3-methyl-2-(methylamino)butanamido)-N,3,3-trimethylbutanamido)-2,5-dimethylhex-2-enamide], for which the half-maximal effective concentration (EC50) came to 0.641 nM. As to `CN[C@H](C(=O)N[C@H](C(=O)N(C)[C@H](/C=C(\C)C(=O)NS(=O)(=O)Cc1ccccc1)C(C)C)C(C)(C)C)C(C)(C)c1ccc(OC)cc1` [Compound 91, (S,E)-N-(benzylsulfonyl)-4-((S)-2-((S)-3-(4-methoxyphenyl)-3-methyl-2-(methylamino)butanamido)-N,3,3-trimethylbutanamido)-2,5-dimethylhex-2-enamide], the 50% effective concentration (EC50) amounted to 0.109 nM. In the case of `CN[C@@H](C(=O)N[C@H](C(=O)N(C)[C@H](/C=C(\C)C(=O)NS(=O)(=O)Cc1ccccc1)C(C)C)C(C)(C)C)C(C)(C)c1cccc(OC)c1` [Compound 92, (S,E)-N-(benzylsulfonyl)-4-((S)-2-((R)-3-(3-methoxyphenyl)-3-methyl-2-(methylamino)butanamido)-N,3,3-trimethylbutanamido)-2,5-dimethylhex-2-enamide], the EC50 was 0.485 nM. Still for that read-out and setting: the figure for `CN[C@H](C(=O)N[C@H](C(=O)N(C)[C@H](/C=C(\C)C(=O)NS(=O)(=O)Cc1ccccc1)C(C)C)C(C)(C)C)C(C)(C)c1cccc(OC)c1` [Compound 93, (S,E)-N-(benzylsulfonyl)-4-((S)-2-((S)-3-(3-methoxyphenyl)-3-methyl-2-(methylamino)butanamido)-N,3,3-trimethylbutanamido)-2,5-dimethylhex-2-enamide] is 0.196 nM; for `CN[C@H](C(=O)N[C@H](C(=O)N(C)[C@H](/C=C(\C)C(=O)NS(=O)(=O)Cc1ccccc1)C(C)C)C(C)(C)C)C(C)(C)c1ccc(OCCO)cc1` [Compound 94, (S,E)-N-(benzylsulfonyl)-4-((S)-2-((S)-3-(4-(2-hydroxyethoxy)phenyl)-3-methyl-2-(methylamino)butanamido)-N,3,3-trimethylbutanamido)-2,5-dimethylhex-2-enamide] it is 1.67 nM. On the same count and under the same terms, to `CN[C@H](C(=O)N[C@H](C(=O)N(C)[C@H](/C=C(\C)C(=O)NS(=O)(=O)Cc1ccccc1)C(C)C)C(C)(C)C)C(C)(C)c1ccc(OCCSC(C)=O)cc1` [Compound 95, S-2-(4-((S)-4-((S)-1-(((S,E)-2,5-dimethyl-6-oxo-6-(benzylsulfonamido)hex-4-en-3-yl)(methyl)amino)-3,3-dimethyl-1-oxobutan-2-ylamino)-2-methyl-3-(methylamino)-4-oxobutan-2-yl)phenoxy)ethylethanethioate] belongs 0.288 nM. `CN[C@H](C(=O)N[C@H](C(=O)N(C)[C@H](/C=C(\C)C(=O)NS(=O)(=O)Cc1ccccc1)C(C)C)C(C)(C)C)C(C)(C)c1ccc(OCCN)cc1` [Compound 96, (S,E)-4-((S)-2-((S)-3-(4-(2-aminoethoxy)phenyl)-3-methyl-2-(methylamino)butanamido)-N,3,3-trimethylbutanamido)-N-(benzylsulfonyl)-2,5-dimethylhex-2-enamide]: the 50% effective concentration (EC50) was found to be 10.3 nM. For `CN[C@H](C(=O)N[C@H](C(=O)N(C)[C@H](/C=C(\C)C(=O)NS(=O)(=O)c1ccccc1NC(=O)C(F)(F)F)C(C)C)C(C)(C)C)C(C)(C)c1ccccc1` [Compound 97, (S,E)-2,5-dimethyl-N-(2-(2,2,2-trifluoroacetamido)phenylsulfonyl)-4-((S)—N,3,3-trimethyl-2-((S)-3-methyl-2-(methylamino)-3-phenylbutanamido)butanamido)hex-2-enamide], the EC50 stood at 0.307 nM. With `CN[C@H](C(=O)N[C@H](C(=O)N(C)[C@H](/C=C(\C)C(=O)NS(=O)(=O)c1ccccc1N)C(C)C)C(C)(C)C)C(C)(C)c1ccccc1` [Compound 98, (S,E)-N-(2-aminophenylsulfonyl)-2,5-dimethyl-4-((S)—N,3,3-trimethyl-2-((S)-3-methyl-2-(methylamino)-3-phenylbutanamido)butanamido)hex-2-enamide], the half-maximal effective concentration (EC50) came out at 0.077 nM. As to `CN[C@H](C(=O)N[C@H](C(=O)N(C)[C@H](/C=C(\C)C(=O)NS(=O)(=O)Cc1cccc(C(F)(F)F)c1)C(C)C)C(C)(C)C)C(C)(C)c1ccccc1` [Compound 102, (S,E)-2,5-dimethyl-N-(3-(trifluoromethyl)benzylsulfonyl)-4-((S)—N,3,3-trimethyl-2-((S)-3-methyl-2-(methylamino)-3-phenylbutanamido)butanamido)hex-2-enamide], the EC50 was found to be 0.289 nM. Still for that read-out and setting: to `CN[C@H](C(=O)N[C@H](C(=O)N(C)[C@H](/C=C(\C)C(=O)NS(=O)(=O)Cc1cccc(OC(F)(F)F)c1)C(C)C)C(C)(C)C)C(C)(C)c1ccccc1` [Compound 103, (S,E)-2,5-dimethyl-N-(3-(trifluoromethoxy)benzylsulfonyl)-4-((S)—N,3,3-trimethyl-2-((S)-3-methyl-2-(methylamino)-3-phenylbutanamido)butanamido)hex-2-enamide] belongs 0.209 nM. On the same count and under the same terms, to `CN[C@H](C(=O)N[C@H](C(=O)N(C)[C@H](/C=C(\C)C(=O)NS(=O)(=O)Cc1ccc(Cl)c(Cl)c1)C(C)C)C(C)(C)C)C(C)(C)c1ccccc1` [Compound 104, (S,E)-N-(3,4-dichlorobenzylsulfonyl)-2,5-dimethyl-4-((S)—N,3,3-trimethyl-2-((S)-3-methyl-2-(methylamino)-3-phenylbutanamido)butanamido)hex-2-enamide] belongs 0.272 nM.

The values above are taken from US11617777B2, “Cytotoxic and anti-mitotic compounds, and methods of using the same” (ZYMEWORKS BC INC., priority 2013, dated 2023).
